Source: PMC8816521, “Flux-Based Formulation Development—A Proof of Concept Study” (The AAPS Journal, 2022)
Converted amounts (≈) assume the structure as drawn. Where two headings read alike, the source gives them in different places. Each block holds one molecule with its values, some of them ahead of it.

How the values were obtained:
Solubility of TEL = format: physicochemical
[1] = PAMPA for evaluating the effect of formulation additives on TEL permeability; format: in vitro ADME; settings: for Pe: acceptor pH 7.4, 37°C
Protocol: Each well of the top (donor) compartment of 96-well […]™ PAMPA sandwich (Pion Inc., Billerica MA, USA) was coated with 4 μL of n-dodecane. Before forming the sandwich, the bottom (acceptor) plate was prefilled with 180 μL of pH = 7.4 Prisma^HT buffer. The donor plate was filled with 200 μL of FaSSIF buffer with pre-dissolved TEL and formulation additives. The resultant sandwich was incubated at 37°C, and both compartments were stirred at 60 μm (ABL) with Gut-Box™ (Pion Inc., Billerica MA, USA). After 30 min, the PAMPA sandwich was separated, and 100 μL of both the donor and acceptor compartments were transferred to UV plates (UV-star micro plate, clear, flat bottom, half area, Greiner Group AG, Kremsmünster, Austria). UV absorption (230–400 nm) was measured with Tecan Infinite M200 (Tecan Group Ltd., Mannedorf, Switzerland) driven by PAMPA Explorer software™ (Pion Inc., Billerica MA, USA). Three parallel measurements were performed, and the data were measured with six replicates on every single plate.
(§1) The flux across the membrane was calculated using the following equation: 1 Jt=Δn/A*Δt
(§2) where the flux (J) of a drug through the membrane is defined as the amount (n) of drug crossing a unit area (A) perpendicular to its flow per unit time (t). 2 Pe=J/CD where the Pe is the effective permeability of the drug and CD is donor concentration.
At first, an excipient screening on the PAMPA platform was carried out. The excipients of the available TEL formulations and commonly used standard excipients were involved in the investigation of API-excipient interaction. The concentration of the excipients was determined by referring the usual amount of additives in one tablet to 900 mL dissolution media. Due to the experimental differences in the applied doses, the flux data were considered misleading, and the permeability value was used since it is normalized by the donor concentration.

[2] = Kinetic solubility in FaSSIF with pre-dissolved additives (in situ UV probes, ZIM); format: physicochemical; settings: 37 °C
Protocol: Note that in the context of this manuscript, solubility measured by this method will be called kinetic solubility because the form of the solid phase precipitating during these assays was not characterized. […] Ten milliliters of dissolution medium consisting of equilibrated fasted state simulated intestinal fluid (FaSSIF) buffer containing pre-dissolved additives was stirred at 200 rpm and held at 37°C by circulating water through a heating block mounted to a Pion μDISS™ profiler (Pion Inc., Billerica MA, USA). The stock solution was added in 20 μL aliquots to the dissolution medium. 1 M HCl was used to readjust the pH of the media after every addition of the stock solution. During and after addition of the stock solution, UV probes connected to a Pion Rainbow™ Dynamic Dissolution Monitor® system were used to detect changes in UV spectra, thus enabling the detection of precipitation, which provides information about the kinetic solubility limit.
The zero intercept method (ZIM) was implemented in the AuPRO™ software (Pion Inc., Billerica MA, USA), which was considered a suitable method for detecting the solid nanoparticles in solution. It can be noticed that the second derivative spectrum of a particular compound usually crosses the wavelength axis at specific wavelengths that we will call zero intercept method points or ZIM points (λZIM). The ZIM points are characteristic of the compound and are independent of the concentration. The second derivative values at λZIM are expected to be zero […] the compound is fully dissolved. After a critical concentration, solid particles appear in the solution, and a ZIM point shift can be observed. In case of TEL, the ZIM evaluation was carried out at a wavelength of 318 nm.

[3] = set-up: method as in PMID 18501462, PMID 31458196; settings: between pH 3 and 8; cited from earlier work
[4] = Small volume dissolution-permeation (MicroFLUX); format: in vitro ADME; settings: small scale; donor pH 1.6 converted to FaSSIF pH 6.5 after 30 min, acceptor pH 7.4, 37°C, calculated between 70 and 100 min
Protocol: as §1, §2
Electrospun formulations of TEL were tested using μFLUX (Pion Inc., Billerica MA, USA) apparatus which consists of a donor and an acceptor chamber separated by an artificial membrane (PVDF, polyvinylidenfluoride, 0.45 μm, 1.54 cm^2) impregnated with 25 μL n-dodecane to form a lipophilic barrier between the donor and acceptor chambers. In case of oral drug delivery, the donor chamber represents the stomach’s condition, while the 18 mL pH 7.4 buffer of acceptor chamber represents the blood circulation. The attempt was started in 16 mL pH 1.6 buffer solution; then after 30 min, media in the dissolution vessel was converted to FaSSIF (pH 6.5) by adding 4 mL of SIF concentrate. Both chambers were stirred at 250 rpm at 37°C to keep the thickness of the unstirred aqueous layer on minimum. In both chambers, the API concentration was followed by immersed UV probes connected to the Rainbow instrument (Pion Inc., Billerica MA, USA). The flux and permeability values were calculated using Eqs. (1) and (2) between 70 and 100 min. […]

[5] = Large volume dissolution-permeation (MacroFLUX); format: in vitro ADME; settings: large scale; donor SGF pH 1.6 converted to FaSSIF pH 6.5 after 30 min, acceptor pH 7.4, 37°C, calculated between 70 and 100 min
Protocol: Final dosage forms of TEL were tested using MacroFLUX^TM (Pion Inc., Billerica MA, USA). […] The flux and permeability values were calculated using Eqs. (1) and (2) between 70 and 100 min.
The MacroFLUX system equipped with in situ fiber optic concentration monitoring was used in this final investigation. The same media conversion protocol as in the case of small volume dissolution-permeation measurements was applied in the dissolution vessel [28]. Micardis, the brand formulation, and the pure amorphous drug were used as references.
Receiver chamber integrated with permeation membrane, overhead stirrer and fiber optic UV probe was inserted in the standard 900 mL vessel of USP 2 apparatus (Erweka DT 126 Dissolution Tester, Heusenstamm Germany). A filter-supported artificial membrane (hydrophobic PVDF, polyvinylidenfluoride, 0.45 μm pore size, 3.8 cm^2) impregnated with 50 μL of n-dodecane was separating the dissolution (donor) compartment from the receiver compartment containing 13 mL of pH 7.4 (Prisma^HT, Pion Inc.). The experiment began in 850 mL of pH 1.6 buffer simulating gastric conditions (SGF) on the donor side and then after 30 minutes media in the dissolution vessel was converted to fasted state simulated intestinal fluid (FaSSIF V1) (pH 6.5) by adding 212.5 mL of specially formulated concentrate containing SIF powder. […]

Solubility in 1 M NaOH solution (Solubility of TEL; 1 M NaOH solution, aqueous): dissolves extremely well
solubility (Solubility of TEL; pH 6.5, crystalline TEL in FaSSIF media): < 1 µg/mL
Papp at 30 min ([1]; PAMPA, excipient-free TEL on the plate of the additive in that table row, FaSSIF donor, 37°C, read-out: Reference Pe): 111 ×10⁻⁶ cm/s
Pe ([1]; TEL with HMPC 2910 212 μg/mL in FaSSIF donor, 30 min): 1.22 10^−4 cm/sec
Pe ([1]; TEL with HPMC-AS 212 μg/mL in FaSSIF donor, 30 min): 1.28 10^−4 cm/sec
Pe ([1]; TEL with HPβCD 1386 μg/mL in FaSSIF donor, 30 min): 1.21 10^−4 cm/sec
Pe ([1]; TEL with Lactose monohydrate 667 μg/mL in FaSSIF donor, 30 min): 1.39 10^−4 cm/sec
Pe ([1]; TEL with Mannitol 667 μg/mL in FaSSIF donor, 30 min): 1.23 10^−4 cm/sec
Pe ([1]; TEL with PVP K30 212 μg/mL in FaSSIF donor, 30 min): 1.31 10^−4 cm/sec
Pe ([1]; TEL with PVP K90 212 μg/mL in FaSSIF donor, 30 min): 1.25 10^−4 cm/sec
Pe ([1]; TEL with SDS 850 μg/mL in FaSSIF donor, 30 min): 0.83 10^−4 cm/sec
Pe ([1]; TEL with Sorbitol 667 μg/mL in FaSSIF donor, 30 min): 1.42 10^−4 cm/sec
Pe ([1]; TEL with Tween 80 0.45 μg/mL in FaSSIF donor, 30 min): 0.86 10^−4 cm/sec
Reference Pe ([1]; excipient-free TEL on the plate of the additive in that table row, FaSSIF donor, 37°C, 30 min): 1.16 10^−4 cm/sec
solubility kinetic ([2]; FaSSIF buffer with pre-dissolved additive, pH 6.5, aqueous with cosolvent or surfactant or cyclodextrin, TEL in FaSSIF with HPβCD 1386 μg/mL): 37.5 µg/mL (≈ 72.9 µM)
solubility kinetic ([2]; FaSSIF buffer with pre-dissolved additive, pH 6.5, aqueous with cosolvent or surfactant or cyclodextrin, TEL in FaSSIF with SDS 850 μg/mL): 45.9 µg/mL (≈ 89.1 µM)
solubility kinetic ([2]; FaSSIF buffer with pre-dissolved additive, pH 6.5, aqueous with cosolvent or surfactant or cyclodextrin, TEL in FaSSIF with Tween 80 0.45 μg/mL): 64.3 µg/mL (≈ 125 µM)
solubility kinetic ([2]; FaSSIF buffer with pre-dissolved additive, pH 6.5, fassif, TEL in FaSSIF with HMPC 2910 212 μg/mL): 30.9 µg/mL (≈ 60 µM)
solubility kinetic ([2]; FaSSIF buffer with pre-dissolved additive, pH 6.5, fassif, TEL in FaSSIF with HPMC-AS 212 μg/mL): 34.1 µg/mL (≈ 66.3 µM)
solubility kinetic ([2]; FaSSIF buffer with pre-dissolved additive, pH 6.5, fassif, TEL in FaSSIF with Lactose monohydrate 667 μg/mL): 32.8 µg/mL (≈ 63.7 µM)
solubility kinetic ([2]; FaSSIF buffer with pre-dissolved additive, pH 6.5, fassif, TEL in FaSSIF with Mannitol 667 μg/mL): 39.7 µg/mL (≈ 77.1 µM)
solubility kinetic ([2]; FaSSIF buffer with pre-dissolved additive, pH 6.5, fassif, TEL in FaSSIF with PVP K30 212 μg/mL): 34.7 µg/mL (≈ 67.4 µM)
solubility kinetic ([2]; FaSSIF buffer with pre-dissolved additive, pH 6.5, fassif, TEL in FaSSIF with PVP K90 212 μg/mL): 34.4 µg/mL (≈ 66.8 µM)
solubility kinetic ([2]; FaSSIF buffer with pre-dissolved additive, pH 6.5, fassif, TEL in FaSSIF with Sorbitol 667 μg/mL): 30.7 µg/mL (≈ 59.7 µM)
solubility kinetic ([2]; FaSSIF buffer, pH 6.5, fassif, TEL in FaSSIF, no additive (0 μg/mL)): 37.3 µg/mL (≈ 72.4 µM)
SMILES: CCCc1nc2c(C)cc(-c3nc4ccccc4n3C)cc2n1Cc1ccc(-c2ccccc2C(=O)O)cc1 [TEL, telmisartan]
solubility [3]: practically insoluble

Pe [4]: 1.19 10^−4 cm/sec
Pe [5]: 1.03 10^−4 cm/sec
SMILES: CCCc1nc2c(C)cc(-c3nc4ccccc4n3C)cc2n1Cc1ccc(-c2ccccc2C(=O)O)cc1 [Tel_amorphous, telmisartan]
